# Data from ChEMBL document CHEMBL6120958, “A Highly Atom-Efficient Prodrug Approach to Generate Synergy between H2S and Nonsteroidal Anti-inflammatory Drugs and Improve Safety” (J Med Chem, 2024).
# Calls of active or inactive are those of the source. The calls are words filed in the database; no cut-off is given here.
# Tests used:
# [1] = Stability of the compound in PBS at 500 uM measured for 3 months at pH 7.4 at -20 degC by HPLC analysis; format: physicochemical; conditions: buffer, pH 7.4, 2190 h
# [2] = Stability of the compound in PBS at 500 uM measured within 144 hrs at pH 7.4 at 37 degC by HPLC analysis; format: physicochemical; conditions: buffer, pH 7.4, 144 h
# [3] = Stability of the compound in rat plasma assessed as half life by LC-MS/MS analysis; format: ADME, cell-free
# Liver carboxylesterase [4] = molecular target: T1, Liver carboxylesterase (Sus scrofa, UniProt Q29550); assay: Prodrug release in PBS assessed as porcine liver esterase-mediated hydrolysis by measuring half-life at 500 uM measured at pH 7.4 by HPLC analysis; format: ADME; conditions: pig, isolated protein, pH 7.4, 500 µM
# T1 sequence (Q29550 whole entry): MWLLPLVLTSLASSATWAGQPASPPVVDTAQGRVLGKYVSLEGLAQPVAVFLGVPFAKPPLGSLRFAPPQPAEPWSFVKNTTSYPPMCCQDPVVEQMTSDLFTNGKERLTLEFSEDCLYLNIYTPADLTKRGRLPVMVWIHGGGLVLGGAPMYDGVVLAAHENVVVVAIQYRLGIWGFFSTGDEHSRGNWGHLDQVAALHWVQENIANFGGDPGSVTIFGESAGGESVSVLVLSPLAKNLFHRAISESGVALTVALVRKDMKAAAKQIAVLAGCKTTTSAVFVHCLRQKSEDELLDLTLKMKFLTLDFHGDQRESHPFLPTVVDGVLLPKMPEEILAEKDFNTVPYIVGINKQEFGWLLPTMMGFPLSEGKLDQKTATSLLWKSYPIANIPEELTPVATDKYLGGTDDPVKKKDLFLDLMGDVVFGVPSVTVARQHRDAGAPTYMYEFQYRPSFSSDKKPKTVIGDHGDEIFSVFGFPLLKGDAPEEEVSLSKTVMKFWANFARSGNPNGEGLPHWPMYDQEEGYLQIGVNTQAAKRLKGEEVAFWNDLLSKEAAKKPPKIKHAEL
# Liver carboxylesterase [5] = molecular target: T1, Liver carboxylesterase; assay: Prodrug release in PBS assessed as porcine liver esterase-mediated hydrolysis by measuring peak H2S concentration at 500 uM measured at pH 7.4 after 90 mins by methylene blue method; format: ADME; conditions: pig, isolated protein, pH 7.4, 1.5 h
# [6] = molecular target: T2, Prostaglandin G/H synthase 1 (Ovis aries, UniProt P05979); assay: Inhibition of ovine COX1 assessed as reduction in PGF2alpha production using arachidonic acid as substrate preincubated with enzyme for 10 mins followed by substrate addition and measured after 2 mins by ELISA
# T2 sequence (P05979 whole entry): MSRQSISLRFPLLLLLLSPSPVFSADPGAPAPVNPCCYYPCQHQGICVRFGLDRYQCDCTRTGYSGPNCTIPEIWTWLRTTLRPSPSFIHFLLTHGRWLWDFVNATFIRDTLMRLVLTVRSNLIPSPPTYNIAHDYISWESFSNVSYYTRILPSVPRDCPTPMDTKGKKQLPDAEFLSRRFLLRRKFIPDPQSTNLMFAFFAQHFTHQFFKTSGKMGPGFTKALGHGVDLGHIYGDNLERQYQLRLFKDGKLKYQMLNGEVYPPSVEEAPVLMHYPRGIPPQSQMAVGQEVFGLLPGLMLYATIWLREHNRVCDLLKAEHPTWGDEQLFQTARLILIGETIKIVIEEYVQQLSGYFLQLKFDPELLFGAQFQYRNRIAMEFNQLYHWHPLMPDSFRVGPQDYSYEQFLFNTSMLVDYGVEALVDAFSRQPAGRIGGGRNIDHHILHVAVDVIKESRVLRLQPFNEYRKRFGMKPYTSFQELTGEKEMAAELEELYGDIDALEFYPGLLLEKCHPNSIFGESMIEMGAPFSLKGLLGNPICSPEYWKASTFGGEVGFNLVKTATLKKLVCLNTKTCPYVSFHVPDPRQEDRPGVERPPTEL
# [7] = molecular target: T3, Prostaglandin G/H synthase 2 (Homo sapiens, UniProt P35354); assay: Inhibition of human recombinant COX2 assessed as reduction in PGF2alpha production using arachidonic acid as substrate preincubated with enzyme for 10 mins followed by substrate addition and measured after 2 mins by ELISA
# T3 sequence (P35354 whole entry): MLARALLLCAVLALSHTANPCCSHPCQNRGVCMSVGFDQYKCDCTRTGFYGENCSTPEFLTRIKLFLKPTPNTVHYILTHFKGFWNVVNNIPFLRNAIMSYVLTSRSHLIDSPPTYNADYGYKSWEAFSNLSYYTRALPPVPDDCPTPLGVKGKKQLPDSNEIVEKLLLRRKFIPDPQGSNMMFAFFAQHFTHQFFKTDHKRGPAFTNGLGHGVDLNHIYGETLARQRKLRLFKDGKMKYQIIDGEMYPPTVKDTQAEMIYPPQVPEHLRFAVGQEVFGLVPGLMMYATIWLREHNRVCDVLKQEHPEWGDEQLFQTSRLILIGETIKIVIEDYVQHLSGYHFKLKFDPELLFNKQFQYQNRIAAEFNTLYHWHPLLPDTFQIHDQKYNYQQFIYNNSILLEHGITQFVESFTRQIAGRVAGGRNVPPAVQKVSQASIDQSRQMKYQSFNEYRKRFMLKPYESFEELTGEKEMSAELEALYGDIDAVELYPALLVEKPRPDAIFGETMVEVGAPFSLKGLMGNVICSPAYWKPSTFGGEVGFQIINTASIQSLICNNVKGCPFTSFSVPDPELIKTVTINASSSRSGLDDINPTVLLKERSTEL
# Mus musculus [8] = assay: (§1) Protection against ischemia/reperfusion injury in middle cerebral artery occlusion C57BL/6J mouse model assessed as decrease in malondialdehyde level in brain at 100 umol/kg, iv administered within initial 20 mins of ischemia period followed by reperfusion for 24 hrs after 1 hr and 20 mins of ischemia period and measured at 24 hrs post-reperfusion; format: functional, organism-based; conditions: dose 100.0 µmol/kg, time 2960.0 min
# Mus musculus [9] = assay: as §1, with “infarct size” for “malondialdehyde level”, “post-reperfusion by TTC staining based analysis” for “post-reperfusion”; format: functional, organism-based; conditions: dose 100.0 µmol/kg, time 2960.0 min
# [10] = Toxicity against collagen-induced arthritis Wistar rat model assessed as gastrointestinal tract damage by measuring ulcer area in stomach at 33.7 umol/kg, po administered for 28 days; format: organism-based; conditions: in vivo, 672 h, at 33.7 µmol/kg, time 28 day
# Rattus norvegicus [11] = assay: Antiinflammatory activity against collagen-induced arthritis Wistar rat model assessed as reduction in toe swelling at 33.7 umol/kg, po administered for 28 days via gavage; format: functional, organism-based; conditions: dose 33.7 µmol/kg, time 28.0 day
# [12] = Toxicity against collagen-induced arthritis Wistar rat model assessed as glutathione level in liver at 33.7 umol/kg, po administered for 28 days; format: organism-based; conditions: in vivo, 672 h, dose 33.7 µmol/kg, time 28 day
# [13] = Toxicity against collagen-induced arthritis Wistar rat model assessed as creatinine level in serum at 33.7 umol/kg, po administered for 28 days; format: organism-based; conditions: in vivo, 672 h, dose 33.7 µmol/kg, time 28 day
# Rattus norvegicus [14] = assay: Antiinflammatory activity against collagen-induced arthritis Wistar rat model assessed as increase in IL-10 level in serum at 33.7 umol/kg, po administered for 28 days via gavage by ELISA; format: functional, organism-based; conditions: dose 33.7 µmol/kg, time 28.0 day
# [15] = Toxicity against collagen-induced arthritis Wistar rat model assessed as gastric ulcer area at 16.8 umol/kg, po administered for 28 days; format: organism-based; conditions: in vivo, 672 h, at 16.8 µmol/kg, time 28 day
# Rattus norvegicus [16] = assay: Antiinflammatory activity against collagen-induced arthritis Wistar rat model assessed as reduction in IL-1 beta level in serum at 33.7 umol/kg, po administered for 28 days via gavage by ELISA; format: functional, organism-based; conditions: dose 33.7 µmol/kg, time 28.0 day
# [17] = Toxicity against collagen-induced arthritis Wistar rat model assessed as AST level in serum at 33.7 umol/kg, po administered for 28 days; format: organism-based; conditions: in vivo, 672 h, dose 33.7 µmol/kg, time 28 day
# [18] = Cardiotoxicity against Sprague-Dawley rat assessed as LDH level in serum at 13.5 mg/kg, ip administered for 6 days (reference value: 831.8 +/-23.1 U/L); format: toxicity, organism-based; conditions: in vivo, 144 h, time 6 day
# [19] = Toxicity against collagen-induced arthritis Wistar rat model assessed as uric acid level in serum at 33.7 umol/kg, po administered for 28 days; format: organism-based; conditions: in vivo, 672 h, dose 33.7 µmol/kg, time 28 day
# [20] = Toxicity against C57BL/6J mouse assessed as AST level in serum at 506 umol/kg, ip measured after 24 hrs; format: organism-based; conditions: in vivo, dose 506 µmol/kg
# [21] = Toxicity against C57BL/6J mouse assessed as ALT level in serum at 506 umol/kg, ip measured after 24 hrs; format: organism-based; conditions: in vivo, dose 506 µmol/kg
# [22] = Oral bioavailability in Wistar rat at 10 mg/kg; format: ADME, organism-based; conditions: in vivo
# [23] = Stability in Sprague-Dawley rat assessed as parent compound level in blood at 80 umol/kg, iv measured after 1 min by LC-MS/MS analysis; format: ADME, organism-based; conditions: whole blood, dose 80 µmol/kg, read-out: Stability
# Rattus norvegicus [24] = assay: Prodrug release in Sprague-Dawley rat assessed as benzoic acid level in blood at 80 umol/kg, iv measured after 5 mins by LC-MS/MS analysis; format: ADME, organism-based; conditions: in vivo, dose 80 µmol/kg
# Liver carboxylesterase [25] = molecular target: T1, Liver carboxylesterase; assay: Prodrug release in PBS assessed as porcine liver esterase-mediated hydrolysis by measuring H2S concentration at 500 uM measured at pH 7.4 after 5 hrs by methylene blue method; format: ADME; conditions: pig, isolated protein, pH 7.4, 5 h
# Liver carboxylesterase [26] = molecular target: T1, Liver carboxylesterase; assay: Prodrug release in PBS assessed as porcine liver esterase-mediated hydrolysis at 500 uM measured at pH 7.4 in presence of PMSF by HPLC analysis; format: ADME; conditions: pig, isolated protein, pH 7.4, 500 µM
# Rattus norvegicus [27] = assay: Prodrug release in Sprague-Dawley rat assessed as benzoic acid level in blood at 80 umol/kg, iv measured after 1 min by LC-MS/MS analysis; format: ADME, organism-based; conditions: in vivo, dose 80 µmol/kg
# [28] = Stability in Sprague-Dawley rat assessed as parent compound level in blood at 80 umol/kg, iv measured after 5 mins by LC-MS/MS analysis; format: ADME, organism-based; conditions: whole blood, dose 80 µmol/kg, read-out: Stability
# Liver carboxylesterase [29] = molecular target: T1, Liver carboxylesterase; assay: Prodrug release in PBS assessed as porcine liver esterase-mediated hydrolysis by measuring peak H2S concentration at 500 uM measured at pH 7.4 after 80 mins by methylene blue method; format: ADME; conditions: pig, isolated protein, pH 7.4, 1.333 h
# Mus musculus [30] = assay: Prodrug release in C57BL/6J mouse assessed as increase in H2S concentration in blood at 50 umol/kg, iv measured after 15 mins by gas chromatography; format: ADME, organism-based; conditions: in vivo, 0.25 h, dose 50 µmol/kg
# Liver carboxylesterase [31] = molecular target: T1, Liver carboxylesterase; assay: Prodrug release in PBS assessed as porcine liver esterase-mediated hydrolysis by measuring peak H2S concentration at 500 uM measured at pH 7.4 after 40 mins by methylene blue method; format: ADME; conditions: pig, isolated protein, pH 7.4, 40 min
structure (smiles),measurement,setting,value
COc1ccc(CCC(=O)[S-])cc1.[Na+],Stability,[1],Stable
same,Stability,[2],Stable
O=C([S-])Cc1ccccc1.[Na+],Stability,[1],Stable
same,Stability,[2],Stable
COc1ccc2c(c1)c(CC(=O)[S-])c(C)n2C(=O)c1ccc(Cl)cc1.[Na+],Stability,[1],Stable
same,half-life,[3],21.3 h
same,t1/2,Liver carboxylesterase [4],4.45 h
same,Stability,[2],Stable
same,Drug metabolism,Liver carboxylesterase [5],29 µM
same,IC50,[6],7.6 nM
CC(C(=O)[S-])c1ccc(-c2ccccc2)c(F)c1.[Na+] (configuration not stated),Stability,[1],Stable
same,half-life,[3],4.67 h
same,Stability,[2],Stable
same,IC50,[6],221 nM
COc1ccc2cc([C@H](C)C(=O)O)ccc2c1 [NAPROXEN],IC50,[7],10600 nM
COc1ccc2cc([C@H](C)C(=O)[S-])ccc2c1.[Na+],Stability,[1],Stable
same,half-life,[3],6.73 h
same,Stability,[2],Stable
same,IC50,[6],1300 nM
OC(=S)c1ccccc1,Activity,Mus musculus [8],Active
same,Activity,Mus musculus [9],Active; Comparable Efficacy To Na2S Observed
O=C([S-])CCc1ccccc1.[Na+],Stability,[1],Stable
same,Stability,[2],Stable
O=C(O)Cc1ccccc1Nc1c(Cl)cccc1Cl [DICLOFENAC],Activity,[10],0.42%
same,Activity,Rattus norvegicus [11],Active
same,Activity,[12],0.8 µg/mg
same,Activity,[13],342.6 µmol/L
same,Activity,Rattus norvegicus [14],Active
same,Activity,[15],0.09%
same,Activity,Rattus norvegicus [16],Active
same,Activity,[17],75.3 U/L
same,Activity,[18],2249 U/L
same,Activity,[19],165.6 µmol/L
same,Activity,[20],128.6 U/L
same,Activity,[21],76.9 U/L
same,bioavailability,[22],75%
O=C([S-])Cc1ccc2ccccc2c1.[Na+],Stability,[1],Stable
same,Stability,[2],Stable
O=C([S-])c1ccc2ccccc2c1.[Na+],Stability,[1],Stable
same,Stability,[2],Stable
O=C([S-])c1ccccc1.[Na+],concentration at 1 min,[23],439 µM
same,Drug metabolism,Rattus norvegicus [24],78.3 µM
same,Stability,[1],Stable
same,half-life,[3],2.17 h
same,t1/2,Liver carboxylesterase [4],2.51 h
same,Drug metabolism,Liver carboxylesterase [25],metabolite_detected
same,Stability,[2],Stable
same,Drug metabolism,Liver carboxylesterase [26],metabolite_notdetected
same,Drug metabolism,Rattus norvegicus [27],46.4 µM
same,concentration at 5 min,[28],113 µM
same,Drug metabolism,Liver carboxylesterase [29],70 µM
same,Drug metabolism,Mus musculus [30],metabolite_detected
O=C([S-])CCc1ccc(Cl)cc1.[Na+],Stability,[1],Stable
same,t1/2,Liver carboxylesterase [4],0.0967 h
same,Stability,[2],Stable
same,Drug metabolism,Liver carboxylesterase [31],129 µM
Cc1ccc(CC(=O)[S-])cc1.[Na+],Stability,[1],Stable
same,Stability,[2],Stable
Cc1ccc(C(=O)[S-])cc1.[Na+],Stability,[1],Stable
same,Stability,[2],Stable
COc1ccc(C(=O)[S-])cc1.[Na+],Stability,[1],Stable
same,Stability,[2],Stable
